According to article PMC7217877, “N-AS-triggered SPMs are direct regulators of microglia in a model of Alzheimer’s disease” (Nature Communications, 2020):
Where “and” joins values, the source holds several entries; their conditions need not be identical. Identical values can stand only once.

System: microglia
Assay: SphK activity in primary cells
Type: cell-based, C57BL/6 mice
Details: Ab 10mM, replicates
Procedure: We confirmed S1P formation through SphK1 enzymatic activity measurements as previously described[11] using a UPLC (Ultra performance liquid chromatography) system (Waters). […] After pre-incubation, 1 mM ATP (Amresco, 0220) was added the mixture, and it was incubated at 37 °C for 1 h. The […] reactions were stopped by adding 53 μl of ethanol, and centrifuged at 15,493×g for 5 min. Thirty microliter of the supernatant was then transferred to a sampling glass vial and 5 μl was applied onto a UPLC system for analysis. S1P formation was followed as phosphorylation of (7-nitro-2-1,3-benzoxadiazol-4-yl)-d-erythro (NBD)-sphingosine (Avanti Polar Lipids) to NBD-S1P. Quantification was achieved by comparison with NBD-S1P (Avanti Polar Lipids) standards.
To confirm the generation and roles of N-AS in neurons, cells from E18 C57BL/6 mice were prepared as previously described. Cortices were dissected and then dissociated followed by incubation in papain (Worthington) at 37 °C for 15 min. […] Aβ 1–42 (10 μM, 24 h, Invitrogen, 03112) was exposed to neurons and the cells were analyzed for the generation and roles of N-AS. […] The human microglia treated with Aβ 1–42 and/or zileuton was incubated with N-AS (2.5 μM, 2 h, Sigma-Aldrich, 01912), and were analyzed for the generation and roles of N-AS.

In the case of “Ab: Aβ 1–42 (Invitrogen, 03112) used to induce an AD environment in cells”, the “SphK activity (Fig 3d)” value is reported as 3.655 and 3.493 and 3.944 and 3.366 and 2.386 and 3.719.
